Experimental data from the supplement of paper PMC12819154, “High-throughput peptide-centric local stability assay extends protein–ligand identification to membrane proteins, tissues and bacteria” (Nature Structural & Molecular Biology, 2025).

Columns and labels:
Experiment in all cases: pEC50 of peptide local stability change
UniProt P31548 = details: peptide sequence: LPGELSGGQR; direction: stabilized; replicate design: treated separately
How it was run: (§1)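 Lysate of E. coli K-12 BW25113 (1.2 mg ml^−1, desalted, with added MgCl2) was divided into four 50 µl replicates and incubated with ATP (10 µM–10 mM, seven doses) or water for 30 min at 25 °C. After a 4 min trypsin digestion at 22 °C, samples were run by DIA LC–MS/MS, and per-replicate treated/control peptide ratios were fitted with a four-parameter log-logistic model. Values were retained only where R^2 was above 0.9 in at least three replicates and the coefficient of variation was at most 0.25. The reported figure is the mean pEC50 over replicates.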

UniProt P37624 = details: peptide sequence: VLASGTPQELVEKR; direction: stabilized; replicate design: treated separately
Sequence of UniProt P37624 (P37624 whole entry): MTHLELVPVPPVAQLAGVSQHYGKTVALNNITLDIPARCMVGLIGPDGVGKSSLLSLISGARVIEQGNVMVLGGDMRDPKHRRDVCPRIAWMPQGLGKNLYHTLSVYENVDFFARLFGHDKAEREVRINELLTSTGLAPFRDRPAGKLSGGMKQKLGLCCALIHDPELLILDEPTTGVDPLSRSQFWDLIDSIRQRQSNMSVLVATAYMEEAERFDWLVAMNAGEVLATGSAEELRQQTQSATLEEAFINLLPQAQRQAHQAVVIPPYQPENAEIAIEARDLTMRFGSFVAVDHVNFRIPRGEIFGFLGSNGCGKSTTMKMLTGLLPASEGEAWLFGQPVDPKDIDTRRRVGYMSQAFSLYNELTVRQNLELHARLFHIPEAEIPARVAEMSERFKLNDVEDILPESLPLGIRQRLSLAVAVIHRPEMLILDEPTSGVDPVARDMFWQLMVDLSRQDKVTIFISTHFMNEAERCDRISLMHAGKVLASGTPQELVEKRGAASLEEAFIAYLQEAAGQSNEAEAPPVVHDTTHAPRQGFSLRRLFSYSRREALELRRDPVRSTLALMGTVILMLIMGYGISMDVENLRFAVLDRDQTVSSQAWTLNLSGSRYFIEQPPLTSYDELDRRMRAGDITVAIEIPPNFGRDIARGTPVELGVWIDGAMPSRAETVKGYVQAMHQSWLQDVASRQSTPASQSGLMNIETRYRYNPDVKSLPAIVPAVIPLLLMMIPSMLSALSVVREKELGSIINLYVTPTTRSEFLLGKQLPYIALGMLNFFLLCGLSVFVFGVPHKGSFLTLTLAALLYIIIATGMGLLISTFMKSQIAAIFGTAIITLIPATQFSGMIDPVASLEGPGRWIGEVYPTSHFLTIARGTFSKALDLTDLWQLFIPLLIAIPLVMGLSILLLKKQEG
How it was run: as §1

UniProt P21599 = details: peptide sequence: VLEVQGMK; direction: stabilized; replicate design: treated separately
Sequence of UniProt P21599 (P21599 whole entry): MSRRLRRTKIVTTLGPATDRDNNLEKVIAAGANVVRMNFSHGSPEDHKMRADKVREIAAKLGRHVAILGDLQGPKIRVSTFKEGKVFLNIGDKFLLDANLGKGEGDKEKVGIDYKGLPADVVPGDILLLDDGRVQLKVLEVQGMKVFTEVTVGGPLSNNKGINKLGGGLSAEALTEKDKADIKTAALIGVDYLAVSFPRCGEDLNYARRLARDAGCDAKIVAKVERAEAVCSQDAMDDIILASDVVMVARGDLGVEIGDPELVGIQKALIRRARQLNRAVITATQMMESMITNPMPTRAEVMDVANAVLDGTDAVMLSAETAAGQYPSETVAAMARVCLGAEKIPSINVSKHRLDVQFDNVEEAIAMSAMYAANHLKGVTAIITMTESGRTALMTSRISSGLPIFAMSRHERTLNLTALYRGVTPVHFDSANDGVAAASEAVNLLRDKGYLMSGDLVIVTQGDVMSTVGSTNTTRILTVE
How it was run: as §1

UniProt P36566 = details: peptide sequence: TLSPDYPR; direction: stabilized; replicate design: treated separately
Sequence of UniProt P36566 (P36566 whole entry): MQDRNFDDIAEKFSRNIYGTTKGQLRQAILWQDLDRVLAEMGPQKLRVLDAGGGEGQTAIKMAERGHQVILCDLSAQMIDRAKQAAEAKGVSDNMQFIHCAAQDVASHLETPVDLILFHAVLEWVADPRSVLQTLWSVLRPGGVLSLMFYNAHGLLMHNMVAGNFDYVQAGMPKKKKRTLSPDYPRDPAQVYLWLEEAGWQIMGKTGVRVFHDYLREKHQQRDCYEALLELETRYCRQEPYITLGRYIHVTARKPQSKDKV
How it was run: as §1

UniProt P27550 = details: peptide sequence: NTSFAPGNVSIK; direction: stabilized; replicate design: treated separately
How it was run: as §1

UniProt P11664 = details: peptide sequence: GAPETFDVAK; direction: stabilized; replicate design: treated separately
Sequence of UniProt P11664 (P11664 whole entry): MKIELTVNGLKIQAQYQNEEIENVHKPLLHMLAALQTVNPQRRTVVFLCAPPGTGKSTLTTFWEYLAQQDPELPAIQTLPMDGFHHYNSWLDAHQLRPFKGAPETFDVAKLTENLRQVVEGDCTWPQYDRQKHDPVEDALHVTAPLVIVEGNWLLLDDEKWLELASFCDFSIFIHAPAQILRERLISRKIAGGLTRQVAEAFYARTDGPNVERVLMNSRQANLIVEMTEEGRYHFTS
How it was run: as §1

UniProt P27296 = details: peptide sequence: AQIAAWYK; direction: stabilized; replicate design: treated separately
How it was run: as §1

UniProt P37647 = details: peptide sequence: GHLTASTVIQYR; direction: stabilized; replicate design: treated separately
Sequence of UniProt P37647 (P37647 whole entry): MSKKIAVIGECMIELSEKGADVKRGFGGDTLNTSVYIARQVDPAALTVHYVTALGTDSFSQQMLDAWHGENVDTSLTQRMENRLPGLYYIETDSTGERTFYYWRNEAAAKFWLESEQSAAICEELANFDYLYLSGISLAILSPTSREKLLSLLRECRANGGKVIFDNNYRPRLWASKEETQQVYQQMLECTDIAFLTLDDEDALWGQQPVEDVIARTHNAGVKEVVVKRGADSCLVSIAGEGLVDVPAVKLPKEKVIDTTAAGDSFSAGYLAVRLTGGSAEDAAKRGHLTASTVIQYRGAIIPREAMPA
How it was run: as §1

UniProt P43329 = details: peptide sequence: HTEILPLYAR; direction: stabilized; replicate design: treated separately
Sequence of UniProt P43329 (P43329 whole entry): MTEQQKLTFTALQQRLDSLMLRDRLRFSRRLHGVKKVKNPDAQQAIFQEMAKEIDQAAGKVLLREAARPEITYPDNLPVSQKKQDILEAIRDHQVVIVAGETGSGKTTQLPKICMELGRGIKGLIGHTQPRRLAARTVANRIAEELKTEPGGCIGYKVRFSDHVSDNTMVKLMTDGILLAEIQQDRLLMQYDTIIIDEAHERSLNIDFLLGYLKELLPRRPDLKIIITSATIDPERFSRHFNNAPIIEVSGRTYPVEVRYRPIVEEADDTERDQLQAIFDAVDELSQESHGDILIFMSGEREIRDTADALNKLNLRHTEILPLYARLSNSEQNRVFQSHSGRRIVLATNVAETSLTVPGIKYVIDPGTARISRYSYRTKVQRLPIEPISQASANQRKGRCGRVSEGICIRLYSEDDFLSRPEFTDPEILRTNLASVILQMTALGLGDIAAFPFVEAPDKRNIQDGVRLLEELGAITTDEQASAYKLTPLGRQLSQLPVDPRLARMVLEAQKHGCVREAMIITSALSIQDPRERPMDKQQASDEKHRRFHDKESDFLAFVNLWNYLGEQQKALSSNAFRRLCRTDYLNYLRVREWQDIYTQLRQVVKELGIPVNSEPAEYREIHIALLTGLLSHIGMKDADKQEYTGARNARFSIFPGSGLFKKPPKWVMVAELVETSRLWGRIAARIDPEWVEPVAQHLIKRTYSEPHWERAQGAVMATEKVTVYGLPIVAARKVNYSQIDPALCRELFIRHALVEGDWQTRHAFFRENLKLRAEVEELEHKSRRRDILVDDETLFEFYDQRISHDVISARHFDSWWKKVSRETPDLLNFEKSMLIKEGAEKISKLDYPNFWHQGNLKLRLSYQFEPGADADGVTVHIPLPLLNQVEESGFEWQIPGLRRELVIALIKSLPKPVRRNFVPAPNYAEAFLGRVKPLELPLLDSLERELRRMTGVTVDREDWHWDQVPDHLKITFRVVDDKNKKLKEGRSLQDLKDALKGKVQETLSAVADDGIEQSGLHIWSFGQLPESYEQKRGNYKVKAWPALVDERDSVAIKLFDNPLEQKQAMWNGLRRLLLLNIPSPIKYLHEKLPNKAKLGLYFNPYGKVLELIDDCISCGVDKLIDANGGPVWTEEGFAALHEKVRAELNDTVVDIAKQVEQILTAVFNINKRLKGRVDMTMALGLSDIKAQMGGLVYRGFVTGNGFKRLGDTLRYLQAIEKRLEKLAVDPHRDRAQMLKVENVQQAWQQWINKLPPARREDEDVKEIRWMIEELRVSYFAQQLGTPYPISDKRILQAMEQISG
How it was run: as §1

UniProt P64610 = details: peptide sequence: YYAHLGR; direction: stabilized; replicate design: treated separately
Sequence of UniProt P64610 (P64610 whole entry): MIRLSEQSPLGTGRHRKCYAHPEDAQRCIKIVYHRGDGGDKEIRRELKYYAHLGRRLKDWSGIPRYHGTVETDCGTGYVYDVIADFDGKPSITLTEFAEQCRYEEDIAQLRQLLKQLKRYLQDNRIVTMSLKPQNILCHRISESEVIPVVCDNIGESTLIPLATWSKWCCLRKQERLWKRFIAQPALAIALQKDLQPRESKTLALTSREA
How it was run: as §1

UniProt P09980 = details: peptide sequence: DYAILYR; direction: stabilized; replicate design: treated separately
Sequence of UniProt P09980 (P09980 whole entry): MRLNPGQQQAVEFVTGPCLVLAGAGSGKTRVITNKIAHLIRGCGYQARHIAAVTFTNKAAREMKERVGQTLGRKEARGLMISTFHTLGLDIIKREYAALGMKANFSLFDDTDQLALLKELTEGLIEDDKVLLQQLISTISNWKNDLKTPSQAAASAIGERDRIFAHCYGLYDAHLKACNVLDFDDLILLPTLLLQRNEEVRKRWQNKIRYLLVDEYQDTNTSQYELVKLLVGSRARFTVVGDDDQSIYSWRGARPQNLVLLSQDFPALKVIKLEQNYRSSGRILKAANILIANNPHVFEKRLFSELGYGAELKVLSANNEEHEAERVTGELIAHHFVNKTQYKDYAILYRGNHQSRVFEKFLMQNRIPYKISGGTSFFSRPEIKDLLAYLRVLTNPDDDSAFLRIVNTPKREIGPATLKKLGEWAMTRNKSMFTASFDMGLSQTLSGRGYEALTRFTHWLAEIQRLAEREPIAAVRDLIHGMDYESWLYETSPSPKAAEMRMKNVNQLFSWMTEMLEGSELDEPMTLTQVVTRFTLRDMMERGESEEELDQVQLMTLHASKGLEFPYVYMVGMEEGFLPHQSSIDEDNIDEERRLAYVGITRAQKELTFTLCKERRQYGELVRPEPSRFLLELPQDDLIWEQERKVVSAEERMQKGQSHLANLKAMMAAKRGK
How it was run: as §1

Sequence of UniProt P31548 (P31548 whole entry): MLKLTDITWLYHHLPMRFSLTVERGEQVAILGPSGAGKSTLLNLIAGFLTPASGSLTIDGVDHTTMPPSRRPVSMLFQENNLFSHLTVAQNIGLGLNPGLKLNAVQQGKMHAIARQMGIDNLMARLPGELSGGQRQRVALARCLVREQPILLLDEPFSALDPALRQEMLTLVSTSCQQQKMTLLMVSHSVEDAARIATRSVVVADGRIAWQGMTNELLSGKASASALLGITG

Nc1ncnc2c1ncn2[C@@H]1O[C@H](COP(=O)(O)OP(=O)(O)OP(=O)(O)O)[C@@H](O)[C@H]1O [adenosine 5'-triphosphate]
Details | pEC50 of peptide local stability change
UniProt P09980 | 4.14
UniProt P11664 | 3.03
UniProt P21599 | 2.4
UniProt P27296 | 3.36
UniProt P27550 | 3.34
UniProt P31548 | 3.79
UniProt P36566 | 2.46
UniProt P37624 | 3.2
UniProt P37647 | 3.1
UniProt P43329 | 3.11
UniProt P64610 | 4.1
